# Reference: PMC11786100, “Chronic GIPR agonism results in pancreatic islet GIPR functional desensitisation” (Molecular Metabolism, 2025)
# Tests used:
# β2-adrenergic receptor = assay: Ex vivo islet heterologous desensitisation, isoproterenol rechallenge cAMP; assay type: cell-based, mouse; conditions: 24-hour pre-treatment with GIP108 (1 μM); dispersed islets, cADDis, n=3
# Experimental: Primary cultures of mouse hypothalamic neurons and dispersed pancreatic islets were transduced with the Green Up cADDis biosensor (Montana Molecular, US). Pancreatic islets from CAMPER^Pdx−1-CreERT2 and CAMPER^Som-Cre mice were not transduced. Cells were pre-treated with peptides as specified, dissolved in culture media. Following 4 h or overnight incubation and a 1-hour washout period, cells were imaged using an epifluorescence microscope at baseline (t = 3 min), following peptide addition (t = 10 min, unless specified otherwise), and following 3-isobutyl-1-methylxanthine (IBMX) (500 μM) and forskolin (FSK) (50 μM) addition (t = 3 min) to maximally stimulate the sensor. In pre-treatment experiments, islet cell fluorescence was normalised to the IBMX/FSK response which was set as 100%. In non-pre-treatment experiments, islet and neuronal cell fluorescence was normalised to both the baseline and IBMX/FSK response. The area-under-the-curve (AUC) for each cell was quantified. […]
# cAMP quantification from the raw islet/neuronal images was performed using Fiji v1.54f (NIH). […] The fluorescence intensity of each ROI was measured at each time point. In pre-treatment experiments, islet cell fluorescence was normalised to the maximal IBMX/FSK response which was set as 100%. […] The AUC during peptide stimulation for each cell was quantified. […]
# SNAP-tagged mouse GLP-1R = target: T1, SNAP-tagged mouse GLP-1R (Mus musculus, UniProt O35659); assay: Internalisation and receptor surface expression assays in AD-293 cells; assay type: cell-based; conditions: 10 nM
# T1 construct: host or cells: AD-293
# T1 sequence (O35659 22-463): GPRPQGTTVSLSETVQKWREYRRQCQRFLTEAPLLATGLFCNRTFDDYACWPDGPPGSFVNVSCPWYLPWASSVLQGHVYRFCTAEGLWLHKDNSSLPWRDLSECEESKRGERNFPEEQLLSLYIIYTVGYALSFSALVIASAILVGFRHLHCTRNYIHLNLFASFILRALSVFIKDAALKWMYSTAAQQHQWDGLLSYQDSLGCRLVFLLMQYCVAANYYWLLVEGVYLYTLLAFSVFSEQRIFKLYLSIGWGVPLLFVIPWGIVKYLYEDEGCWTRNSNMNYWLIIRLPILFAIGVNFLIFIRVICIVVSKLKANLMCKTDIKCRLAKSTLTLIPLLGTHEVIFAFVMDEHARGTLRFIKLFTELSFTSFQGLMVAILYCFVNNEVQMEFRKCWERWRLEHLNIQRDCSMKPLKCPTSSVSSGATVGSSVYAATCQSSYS
# Experimental: AD-293 cells were transfected with desired plasmid DNA encoding a SNAP-tagged G-protein coupled receptor (GPCR) 24 h prior to assay. For 1 h internalisation assays, cells were labelled for 10 min with cleavable SNAP-tag probe BG-S-S-649 (New England BioLabs, US). Following 1 h treatment with specified peptide, cells were imaged at baseline and after addition of 2-mercaptoethane sulfonate (Mesna). For 4-hour GPCR surface expression assays, cells were treated with the specified peptide for 4 h, prior to 10-minute labelling with BG-S-S-649 and imaging. Full details are provided in the supplementary methods.
# AD-293 cells were added to a 96-well plate and maintained in 200 μl complete DMEM. 150 ng of mouse or human SNAP-tagged plasmid GIPR DNA, or 100 ng of mouse or human SNAP-tagged plasmid GLP-1R DNA was added to each well alongside Lipofectamine 2000 (Thermo Fisher, UK) and left for 24 hours.
# For 1 hour internalisation assays, cells were labelled with cleavable SNAP-tag probe BG-S-S-649 (New England BioLabs, US) in complete DMEM for 10 minutes prior to washing and 1 hour treatment with specified peptide, reconstituted in DMEM + 0.1% BSA. […] GPCR internalisation was quantified as the cell fluorescence following Mesna addition (representing internalised GPCR), corrected for the baseline cell fluorescence (representing total cellular GPCR). […]
Compound,cAMP response to isoproterenol (1 μM) after GIP108 pre-treatment (β2-adrenergic receptor),"receptor internalisation compared to vehicle (SNAP-tagged mouse GLP-1R; 1-hour treatment, n = 3–4)","receptor internalisation (surface expression) compared to vehicle (SNAP-tagged mouse GLP-1R; 4-hours treatment, n = 7–8)"
CC[C@H](C)[C@H](NC(=O)[C@H](CO)NC(=O)[C@H](Cc1ccc(O)cc1)NC(=O)[C@H](CC(=O)O)NC(=O)[C@H](CO)NC(=O)[C@@H](NC(=O)[C@H](Cc1ccccc1)NC(=O)[C@@H](NC(=O)CNC(=O)[C@H](CCC(=O)O)NC(=O)C(C)(C)NC(=O)[C@@H](N)Cc1ccc(O)cc1)[C@@H](C)O)[C@@H](C)CC)C(=O)N[C@@H](C)C(=O)N[C@@H](CC(C)C)C(=O)N[C@@H](CC(=O)O)C(=O)N[C@@H](CCCCN)C(=O)N[C@H](C(=O)N[C@@H](Cc1c[nH]cn1)C(=O)N[C@@H](CCC(N)=O)C(=O)N[C@@H](CCC(N)=O)C(=O)N[C@@H](CC(=O)O)C(=O)N[C@@H](Cc1ccccc1)C(=O)N[C@H](C(=O)N[C@@H](CC(N)=O)C(=O)N[C@@H](Cc1c[nH]c2ccccc12)C(=O)N[C@@H](CC(C)C)C(=O)N[C@@H](CC(C)C)C(=O)N[C@@H](C)C(=O)N[C@@H](CCC(N)=O)C(=O)N[C@@H](CCCCN)C(=O)NCC(=O)N[C@@H](CCCCNC(=O)CC[C@H](NC(=O)CCCCCCCCCCCCCCCCCCC(=O)O)C(=O)O)C(=O)N[C@@H](CCCCN)C(=O)N[C@@H](CC(N)=O)C(=O)N[C@@H](CC(=O)O)C(=O)N[C@@H](Cc1c[nH]c2ccccc12)C(=O)N[C@@H](CCCCN)C(=O)N[C@@H](Cc1c[nH]cn1)C(=O)N[C@@H](CC(N)=O)C(=O)N[C@H](C(=O)N[C@H](C(=O)N[C@@H](CCC(N)=O)C(=O)O)[C@@H](C)O)[C@@H](C)CC)C(C)C)[C@@H](C)CC [GIP108],remained intact,,
GLP-1(7–36)·NH2,,significantly increased both mouse and human GLP-1R internalisation,significantly increased both mouse and human GLP-1R internalisation
